Results as given in US20120295907A1, “INSECTICIDAL COMPOUNDS” (SYNGENTA CROP PROTECTION, LLC, priority 2009, published 2012).

Assays:
Type in all cases: in vivo
[1] = tested on: Tetranychus urticae; test: Tetranychus urticae (Two-Spotted Spider Mite) bean leaf disc spray test; settings: foliar, 192 h, 200 ppm spray on bean leaf discs, mite populations of mixed ages, 8 days, egg, larval and adult mortality, read-out: control of Tetranychus urticae
[2] = tested on: Diabrotica balteata; test: Diabrotica balteata (Corn Root Worm) artificial diet MTP test; settings: 120 h, 200 ppm (concentration in well 18 ppm), L2 larvae, 5 days, larval mortality, growth regulation
[3] = tested on: Spodoptera littoralis; test: Spodoptera littoralis (Egyptian Cotton Leafworm) cotton leaf disc spray test; settings: foliar, 72 h, 200 ppm spray on cotton leaf discs, L1 larvae, mortality, feeding behavior, growth regulation 3 DAT
[4] = tested on: Thrips tabaci; test: Thrips tabaci (Onion Thrips) sunflower leaf disc spray test; settings: foliar, 168 h, 200 ppm spray on sunflower leaf discs, population of mixed ages, 7 days, mortality
[5] = tested on: Myzus persicae; test: Myzus persicae (Green Peach Aphid) sunflower leaf disc spray test; settings: foliar, 144 h, 200 ppm spray on sunflower leaf discs, aphid population of mixed ages, 6 DAT, mortality
[6] = tested on: Heliothis virescens; test: Heliothis virescens (Tobacco Budworm) egg test on artificial diet; settings: 96 h, 200 ppm (concentration in well 18 ppm), eggs 0-24 h old on artificial diet, 4 days, egg mortality, larval mortality, growth regulation
[7] = tested on: Plutella xylostella; test: Plutella xylostella (Diamond Back Moth) artificial diet MTP test; settings: 144 h, 200 ppm (concentration in well 18 ppm), L2 larvae, 6 days, larval mortality, growth regulation

Measured: pest or weed control at 200 ppm

CCc1cc(C(F)(C(F)(F)F)C(F)(F)C(F)(F)F)cc(C)c1NC(=O)c1cccc(NC(=O)c2ccc(F)cc2Cl)c1OC (stereo not shown) [A3, N-[2-ethyl-4-(1,2,2,3,3,3-hexafluoro-1-trifluoromethylpropyl)-6-methylphenyl]-3-(4-fluoro-2-chlorobenzoylamino)-2-methoxybenzamide]
not listed: [6] | [7]
≥ 80%: all other assays above

CCc1cc(C(F)(C(F)(F)F)C(F)(F)C(F)(F)F)cc(C)c1NC(=O)c1cccc(NC(=O)c2ccc(C#N)cc2)c1OC (stereo not shown) [A4, N-[2-ethyl-4-(1,2,2,3,3,3-hexafluoro-1-trifluoromethylpropyl)-6-methyl-phenyl]-3-(4-cyanobenzoylamino)-2-methoxybenzamide]
≥ 80%: all assays above

CCc1cc(C(F)(C(F)(F)F)C(F)(F)C(F)(F)F)cc(C)c1NC(=O)c1cccc(NC(=O)c2ccnc(Cl)c2)c1OC (stereo not shown) [A10]
≥ 80%: all assays above

CCc1cc(C(F)(C(F)(F)F)C(F)(F)C(F)(F)F)cc(C)c1NC(=O)c1cccc(NC(=O)c2ccc(Cl)nc2)c1OC (stereo not shown) [A17]
≥ 80%: all assays above

CCc1cc(C(F)(C(F)(F)F)C(F)(F)C(F)(F)F)cc(C)c1NC(=O)c1cccc(NC(=O)c2ccc([N+](=O)[O-])cc2)c1OC (stereo not shown) [A18]
≥ 80%: all assays above

CCc1cc(C(F)(C(F)(F)F)C(F)(F)C(F)(F)F)cc(C)c1NC(=O)c1cccc(NC(=O)c2ccc([N+](=O)[O-])cc2C)c1OC (stereo not shown) [A22]
not listed: [6]
≥ 80%: all other assays above

COc1c(NC(=O)c2ccccc2C)cccc1C(=O)Nc1c(Cl)cc(C(F)(C(F)(F)F)C(F)(F)C(F)(F)F)cc1Br (stereo not shown) [B4]
≥ 80%: all assays above

COc1ccc(C(=O)Nc2cccc(C(=O)Nc3c(Cl)cc(C(F)(C(F)(F)F)C(F)(F)C(F)(F)F)cc3Br)c2OC)cc1 (stereo not shown) [B28]
not listed: [6]
≥ 80%: all other assays above

COc1c(NC(=O)c2ccncc2)cccc1C(=O)Nc1c(Cl)cc(C(F)(C(F)(F)F)C(F)(F)C(F)(F)F)cc1Br (stereo not shown) [B54]
not listed: [6]
≥ 80%: all other assays above

CCc1cc(C(F)(C(F)(F)F)C(F)(F)F)cc(C)c1NC(=O)c1cccc(NC(=O)c2ccc(F)cc2Cl)c1OC [J27]
not listed: [3]
≥ 80%: all other assays above
